Data taken from US7169604B1, “Method for PR-39 peptide mediated selective inhibition of IκBα degradation” (Beth Israel Deaconess Medical Center, priority 1998, dated 2007).
Ends that are not written are not given here.

How the values were obtained:
ICAM-1 and VCAM-1 = ICAM-1 and VCAM-1 expression in mouse infarct model; format: in vivo; conditions: transgenic αMHC-PR-39 mice vs control mice, coronary artery ligation, 1, 3 or 7 days
Description: NFκB-dependent transcription is also activated following induction of ischemia in the heart, leading to increased expression of several adhesion molecules, including ICAM-1 and VCAM-1. To test the effect of PR-39 peptide on NFκB-dependent gene expression in this model, we assessed VCAM-1 and ICAM-1 protein levels following induction of myocardial infarction in transgenic mice expressing PR-39 cDNA in cardiac myocytes (αMHC-PR-39) and age-matched control mice. The result is given by FIG. 2D.
Transgenic mice stably expressing PR-39 in cardiac myocytes (αMHC-PR-39 mice) or litter mate controls (control mice) were subjected to acute coronary artery ligation as described (30) and randomized to intraperitoneal implantation of Alzet minipumps (Alza Corp, Palo Alto, Calif.) delivering 1 μg/kg/24 hr of PR-39 or buffer. Myocardial tissues collected 1, 3 or 7 days later were subjected to Western blot analysis for ICAM-1 and VCAM-1 gene expression that were normalized to expression levels prior to induction of infarction. Note the rapid increase in both ICAM-1 and VCAM-1 expression in control but not αMHC-PR-39 mice.
In contrast, induction of myocardial infarction had no effect on either ICAA-1 or VCAM-1 protein levels in αMHC-PR-39 mice.

[1] = Infarct size in mice, ischemia-reperfusion injury; format: in vivo; conditions: infusion prior to restoration of flow
Description: • a. Inhibition of ischemia-reperfusion injury. Restoration of blood flow to the myocardium in the setting of acute myocardial infarction leads to further damage to ischemic but still live heart muscle due to an influx of inflammatory blood cells that is mediated by NFκB-activated expression of endothelial adhesion molecules ICAM-1 and VCAM-1. Infusion of PR39 prior to restoration of flow blocks this effect due to inhibition of NFκB activity and effectively protects from further myocardial injury. […] Inhibition of chemical pancreatitis. Tissue injury in the pancreas due to chemical or hormonal injury is one of the more common causes of acute pancreatitis. This is largely mediated by NFκB. Pre-treatment with PR39 blocks this injury. • c. PR39 will block any other injury activated NFκB-dependent gene transcription and thus can be used to block the development of skin wounds, ulcers (stomach, duodenum), etc.

IκBα [2] = target: T1, IκBα (Homo sapiens, UniProt P25963); test: In vitro IκBα ubiquitination assay with HeLa cell extract; conditions: cell free system, two different concentrations
T1 sequence (P25963 1-317): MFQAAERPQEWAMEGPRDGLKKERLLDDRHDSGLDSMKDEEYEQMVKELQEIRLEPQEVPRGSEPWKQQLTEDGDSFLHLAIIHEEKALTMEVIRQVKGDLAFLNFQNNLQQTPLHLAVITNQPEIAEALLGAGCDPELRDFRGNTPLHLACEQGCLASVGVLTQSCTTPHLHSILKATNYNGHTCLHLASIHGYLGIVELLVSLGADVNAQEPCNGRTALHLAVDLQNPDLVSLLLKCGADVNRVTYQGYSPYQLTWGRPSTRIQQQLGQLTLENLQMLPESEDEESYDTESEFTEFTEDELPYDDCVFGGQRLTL
Method: HeLa cells were harvested by centrifugation at 4,000 rpm. The packed cell volume was estimated, and the cells osmotically lysed by the addition of 5 volumes of hypotonic buffer (10 mM Tris-Cl, pH 7.9, 1.5 mM MgCl2, 10 mM KCl, 0.2 mM PMSF, 0.5 mM DTT). The mixture was incubated on ice for 10 minutes, then homogenized with 12 strokes of a Dounce homogenizer (B Type pestle). The crude lysate was centrifuged for 15 minutes at 4,000 rpm, followed by recentrifugation of the supernatant at 100,000×g for 30 minutes. This supernatant was concentrated by the addition of solid (NH4)2SO4 to 80% saturation, stirred at 4° C. for 30 minutes and centrifuged for 15 minutes at 12,000 rpm. The precipitate was resuspended in 1/5 volume of 20 mM Tris-Cl pH7.6, 20 mM KCl, 5 mM MgCl 2, 1 mM DTT, 0.5 mM PMSF, 5 μM Chymostatin and 20 μM E64, and dialyzed against >500 volumes of 20 mM Tris-Cl pH 7.6, 20 mM KCl, 5 mM MgCl2, 1 mM DTT, 10% glycerol at 4° C. overnight and stored at −70° C. until use.
PR-39 or control peptides were also added to individual reactions. […] The samples were then heated for 5 minutes at 95° C. and analyzed by SDA-PAGE on 4-15% acrylamide gradient gels (BioRad, Hurcules, Calif.). After electrophoresis, the gels were incubated with gentle stirring in 30% methanol 10% acetic acid, dried and analyzed using a Fuji phosphorimager. […]

IκBα [3] = test: Reversibility of inhibition of IκBα degradation after washout in U937 cells; format: cell-based, human; conditions: 100 nM for 45 min, washed, 45 min later TNF-α 1 ng/ml, 10 min
Method: In parallel cells were exposed to MG132, a rapidly reversible competitive inhibitor of the proteasome or with lactacystin which covalently and irreversibly modifies the active site threonine residues. The results are shown by FIG. 1F.
U937 cells were pretreated with 100 nM of PR-39, 10 μM of either MG132 or lactacystin (LC) or buffer (Control) for 45 min. These cells were then extensively washed with fresh medium. 45 min later TNF-α (1 ng/ml) was added to medium, and the extent of IκBα degradation was determined 10 min later by Western blotting.

HSP70 = HSP70 expression by Western blotting; format: cell-based, human
ECV304 cells = test: Cell growth in culture (Coulter cell counts); format: cell-based, human; conditions: 10 μM, 48 hours
Method: Prolonged exposure to proteasome inhibitors tend to induce apoptosis in cell culture. To assess the potential cytotoxicity of PR-39, ECV304 cells were cultured in the presence of 10 μM of PR-39, MG132 or lactacystin.
50,000 ECV304 cells were plated in 6 well plates in 10% FBS-M199 and synchronized by serum deprivation in 0.5% FBS-DMEM for 48 hr. At the end of that time, cell culture medium was changed to 10% FBS-M199 and 10 μM of PR-39, lactacystin or buffer (control) were added. Forty eight hours later cell counts were determined using a Coulter Counter (Coulter Instruments, Inc.). All experiments were performed in triplicate and repeated 2 times (mean±SD).

IκBα [4] = test: TNF-α induced degradation of IκBα in U937 cells; format: cell-based, human; conditions: 45 min pretreatment with 100 nM, TNF-α 1 ng/ml, 10 min
Method: Tumor necrosis factor (TNF)-α is known to induce rapid degradation of IκBα by the Ub-proteasome pathway.
As shown by FIG. 1E, PR-39 prevents TNF-a induced degradation of IκBα. U937 cells were cultured in 10% FBs-RPMI medium in the absence (−) or presence of TNF-a (1 ng/ml). 10 min following TNF-α addition, the cells were washed and IκBα protein levels assessed by Western blotting.
Note that a […] 45 min of pretreatment with 100 nM of PR-39 or 10 μM of MG132 or lactacystin (LC) prior to addition of blocked TNF-α, blocked cytokine-induced degradation of IκBα expression.

RRRPRPPYLPRPRPPPFFPPRLPPRIPPGFPPRFPPRFP [PR-39]
NFκB-dependent gene expression (ICAM-1 and VCAM-1 protein levels) (ICAM-1 and VCAM-1): blocks NFκB-dependent gene expression
reduction of infarct size [1]: 60%
IκBα ubiquitination in vitro (IκBα [2]): failed to affect IκBα ubiquitination
extent of IκBα degradation after washout (IκBα [3]): complete disappearance of IκBα protein
HSP70 expression (HSP70; U937 cells, 1 μM, 3 hr exposure): lack of induction of HSP70 expression
HSP70 levels (HSP70; cultured ECV304 cells, 10 μM): failed to stimulate HSP70 accumulation
cell counts (ECV304 cells): lack of significant growth inhibition
TNF-α caused decline of the level of IκBα (IκBα [4]): markedly reduced
